Data as given in publication PMC9561113, “[2]-Ladderanes as isosteres for meta-substituted aromatic rings and rigidified cyclohexanes” (Nature Communications, 2022).
≈ marks a conversion by molar mass, not a printed value.

Columns and labels:
[1] = Microsomal clearance (rat liver microsomal intrinsic clearance); assay type: in vitro ADME; conditions: rat liver microsomes, 37 °C, NADPH, 0-30 minutes
From the text: The metabolic and physicochemical properties of the [2]-ladderanes compared to aryl/cyclohexyl matched pairs were also studied (compare 35 with 36/37 and 38 with 39/40) (Fig. 5). These structures were chosen because they bear functional groups that are common in drug discovery, yet unlikely to pose any inherent risks. In addition, solubility, permeability, rat liver microsomal intrinsic clearance, and LogP were selected to be evaluated as these are common parameters modulated in drug discovery programs to improve the pharmacokinetic/pharmacodynamic and safety profiles of potential drug candidates.
The following procedure was adapted from the literature. 14 The experiment was performed in 96-well plate format with shaking incubation at 37 °C and 750 rpm. The compounds in 10 mM DMSO were diluted 1:1000 in 100 mM potassium phosphate (Kpi) buffer to 10 µM. 30 µL of the compound solution was added to 120 µL of pretreated microsomal protein for 150 µL enzyme-substrate mixture. Reactions were initiated by addition of 150 µL of cofactor solution (2 mM NADPH, 4 mM MgCl2 in 100 mM KPi). At specific reaction time points (0, 5, 15 and 30 minutes), reaction aliquots (25 µL) were removed and terminated by addition to acetonitrile (150 µL) containing mass spectrometry internal standard (0.4 µM glyburide). The samples were then centrifuged at 500g, and the supernatants analyzed by LC-MS/MS for quantitation of remaining target compound. The percentage of target compound remaining, relative to 0 minutes, was used to estimate in vitro elimination-rate constant (kmic). […]

[2] = High throughput equilibrium solubility (miniaturized shake flask); assay type: physicochemical; conditions: phosphate buffer, aqueous buffer, thermodynamic from solid; pH 6.8 phosphate media, shaken 16 hours
Experimental: High Throughput Equilibriu m Solubility:
The following procedure was adapted from the literature.15 Equilibrium solubility was determined using a miniaturized shake flask approach as described in Zhou et al. Aliquots of 10 mM DMSO compound solution were dispensed in triplicate (2.5 µL/sample) in 96-well polypropylene plates using a Labcyte Echo 525 acoustic dispenser. The DMSO was removed using a GeneVac HT4X evaporator for 15 minutes, 35 °C and full vacuum. Media (pH 6.8 Di-Sodium Hydrogen Phosphate/Potassium Hydrogen Phosphate) was added to each well to achieve a target concentration of 1 mM. The plate was sealed and shaken for 16 hours, then centrifuged at 1000g for phase separation. An aliquot of supernatant was transferred to a new plate, centrifuged a second time at 100g, and then the final supernatant was further diluted for subsequent analysis. Quantification of solubility was performed using a Sound Analytics LS1 and Sciex 6500+ MS/MS and an 8-point calibration curve. […]

[3] = Permeability (MDCK), apparent permeability apical-to-basolateral; assay type: in vitro ADME; conditions: dog, with bafilomycin 100 nM in both compartments, MDCK-KO cells, pH 7.4, 2 h, read-out: Papp A-Bx10^-6
Experimental: The following procedure was adapted from the literature.16 To determine the apparent permeability (Papp), MDCK knockout (MDCK-KO) cells were seeded on Transwell 96 -well plate inserts (Corning, Tewksbury, MA,) at a density of 1.5 × 10^5 cells/cm2 in high glucose DMEM with GlutaMAX containing 10% […]
v/v heat deactivated FBS and 1% v/v penicillin-streptomycin (all from Gibco) and grown for 4 days at 37 °C in an atmosphere of 5% CO 2 and 95% relative humidity. Stock solutions of the compounds were prepared in dimethyl sulfoxide (DMSO) (10 mM), and each compound was dosed in triplicate at a final concentration of 10 μM in Hanks’ balanced salt solution (HBSS) at pH 7.4 containing 10 mM 4-(2-hydroxyethyl)-1-piperazineethanesulfonic acid (HEPES) and 0.02% w/v bovine serum albumin (BSA). A solution without the compounds and containing 5% BSA was added to the acceptor. Bafilomycin (100 nM) was added to both compartments. Cells were incubated with the compounds for 2 h at 37 °C, and flux was measured in the apical-to-basolateral direction. Aliquots from the apical, basal and compound dilution plate were sampled and diluted in 90% Methanol 10% Water with 0.1% Formic acid and 0.4 μ M glyburide as an analytical standard to precipitate the protein. The solutions as well as the calibration solutions were centrifuged for 30 min at 3000 rpm for protein precipitation. Drug concentrations in the donor and acceptor compartments were measured by liquid chromatography–mass spectrometry (LC-MS/MS). […]

[4] = Log P (Pion SiriusT3 instrument); assay type: physicochemical
Experimental: v/v heat deactivated FBS and 1% v/v penicillin-streptomycin (all from Gibco) and grown for 4 days at 37 °C in an atmosphere of 5% CO 2 and 95% relative humidity. Stock solutions of the compounds were prepared in dimethyl sulfoxide (DMSO) (10 mM), and each compound was dosed in triplicate at a final concentration of 10 μM in Hanks’ balanced salt solution (HBSS) at pH 7.4 containing 10 mM 4-(2-hydroxyethyl)-1-piperazineethanesulfonic acid (HEPES) and 0.02% w/v bovine serum albumin (BSA). A solution without the compounds and containing 5% BSA was added to the acceptor. Bafilomycin (100 nM) was added to both compartments. Cells were incubated with the compounds for 2 h at 37 °C, and flux was measured in the apical-to-basolateral direction. Aliquots from the apical, basal and compound dilution plate were sampled and diluted in 90% Methanol 10% Water with 0.1% Formic acid and 0.4 μ M glyburide as an analytical standard to precipitate the protein. The solutions as well as the calibration solutions were centrifuged for 30 min at 3000 rpm for protein precipitation. Drug concentrations in the donor and acceptor compartments were measured by liquid chromatography–mass spectrometry (LC-MS/MS).
The Log P was measured using a Pion SiriusT3 instrument.
To determine the stability of the bicyclo[2.2.0] system, the following experiments were performed:
Aqueous stability at two different pH:
SI-48 was first saponified to avoid the possibility of acid- or base-mediated hydrolysis:
Two solutions of pH = 2 and pH = 10 were prepared with 1M solutions of HCl and NaOH. Then, SI-49 was stirred in two separate solutions (1 mL of each of the aqueous solution and 0.80 mL of MeCN for each).
LC/MS for both durations. […]

Row | SMILES | Rat Clint [1] [mL/min] | solubility at 16 h [2] [µM] | Papp at 2 h, 10 μM [3] [×10⁻⁶ cm/s] | logP [4]
1 | O=C(C1CC2CC(CO)C21)N1CCCCC1 (stereo not drawn) [compound 35] | 15 | > 200 | 29 | 0.74
2 | O=C(c1cccc(CO)c1)N1CCCCC1 [compound 36] | < 10 | > 200 | 32 | 0.41
3 | O=C(O)c1cccc(C(=O)N2CCCCC2)c1 [compound 39] | < 10 | > 200 | 4 | 1.15

The next lines start with the values.

Row | Rat Clint [1] [mL/min] | solubility at 16 h [2] [µM] | Papp at 2 h, 10 μM [3] [×10⁻⁶ cm/s] | logP [4] | SMILES
4 | 21 | > 200 | 28 | 1.45 | O=C(C1CCCC(CO)C1)N1CCCCC1 (stereo not drawn) [compound 37]
5 | < 10 | 180 (≈ 42.7 µg/mL) | 5 | 0.98 | O=C(O)[C@@H]1C[C@H]2C[C@H](C(=O)N3CCCCC3)[C@H]21 [compound 38]
6 | < 10 | 200 (≈ 47.9 µg/mL) | 4 | 0.95 | O=C(O)C1CCCC(C(=O)N2CCCCC2)C1 (stereo not drawn) [compound 40]
